ChEMBL document CHEMBL1143959, “Synthesis and structure-affinity relationships of novel spirocyclic sigma receptor ligands with furopyrazole structure” (Bioorg Med Chem, 2008)

Columns and labels:
[1] = Displacement of [3H]ditolylguanidine from sigma 2 […] receptor in rat liver
[2] = Inhibition of adrenergic alpha 2 receptor
[3] = target: T1, 5-hydroxytryptamine receptor 1A (Homo sapiens, UniProt P08908); assay: Inhibition of 5HT1A receptor
T1 sequence (P08908 whole entry): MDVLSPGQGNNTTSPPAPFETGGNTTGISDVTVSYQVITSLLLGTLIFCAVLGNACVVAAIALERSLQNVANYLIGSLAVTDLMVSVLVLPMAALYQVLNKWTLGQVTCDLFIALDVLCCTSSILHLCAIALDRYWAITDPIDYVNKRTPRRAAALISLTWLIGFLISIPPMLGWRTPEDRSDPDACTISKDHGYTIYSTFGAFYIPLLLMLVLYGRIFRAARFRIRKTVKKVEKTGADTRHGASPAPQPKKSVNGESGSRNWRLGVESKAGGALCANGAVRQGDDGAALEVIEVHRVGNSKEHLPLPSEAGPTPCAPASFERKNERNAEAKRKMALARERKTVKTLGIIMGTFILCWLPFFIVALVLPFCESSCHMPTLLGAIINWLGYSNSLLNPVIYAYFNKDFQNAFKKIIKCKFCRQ

[4] = target: Sigma non-opioid intracellular receptor 1 (Cavia porcellus, UniProt Q60492); assay: Displacement of [3H](+)-pentazocine from sigma 1 opioid receptor in guinea pig brain membrane; format: cell membranes
Chain of Sigma non-opioid intracellular receptor 1 (Q60492 whole entry): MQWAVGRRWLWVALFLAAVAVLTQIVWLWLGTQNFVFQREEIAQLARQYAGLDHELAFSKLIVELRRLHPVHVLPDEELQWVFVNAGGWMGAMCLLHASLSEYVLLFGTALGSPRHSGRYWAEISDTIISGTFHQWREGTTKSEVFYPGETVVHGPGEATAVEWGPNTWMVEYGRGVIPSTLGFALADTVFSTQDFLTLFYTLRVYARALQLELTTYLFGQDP

[5] = Displacement of [3H]MK-801 from NMDA receptor at 1 uM
[6] = target: Voltage-gated inwardly rectifying potassium channel KCNH2 (Homo sapiens, UniProt Q12809); assay: Inhibition of human ERG channel
Chain of Voltage-gated inwardly rectifying potassium channel KCNH2 (Q12809 whole entry): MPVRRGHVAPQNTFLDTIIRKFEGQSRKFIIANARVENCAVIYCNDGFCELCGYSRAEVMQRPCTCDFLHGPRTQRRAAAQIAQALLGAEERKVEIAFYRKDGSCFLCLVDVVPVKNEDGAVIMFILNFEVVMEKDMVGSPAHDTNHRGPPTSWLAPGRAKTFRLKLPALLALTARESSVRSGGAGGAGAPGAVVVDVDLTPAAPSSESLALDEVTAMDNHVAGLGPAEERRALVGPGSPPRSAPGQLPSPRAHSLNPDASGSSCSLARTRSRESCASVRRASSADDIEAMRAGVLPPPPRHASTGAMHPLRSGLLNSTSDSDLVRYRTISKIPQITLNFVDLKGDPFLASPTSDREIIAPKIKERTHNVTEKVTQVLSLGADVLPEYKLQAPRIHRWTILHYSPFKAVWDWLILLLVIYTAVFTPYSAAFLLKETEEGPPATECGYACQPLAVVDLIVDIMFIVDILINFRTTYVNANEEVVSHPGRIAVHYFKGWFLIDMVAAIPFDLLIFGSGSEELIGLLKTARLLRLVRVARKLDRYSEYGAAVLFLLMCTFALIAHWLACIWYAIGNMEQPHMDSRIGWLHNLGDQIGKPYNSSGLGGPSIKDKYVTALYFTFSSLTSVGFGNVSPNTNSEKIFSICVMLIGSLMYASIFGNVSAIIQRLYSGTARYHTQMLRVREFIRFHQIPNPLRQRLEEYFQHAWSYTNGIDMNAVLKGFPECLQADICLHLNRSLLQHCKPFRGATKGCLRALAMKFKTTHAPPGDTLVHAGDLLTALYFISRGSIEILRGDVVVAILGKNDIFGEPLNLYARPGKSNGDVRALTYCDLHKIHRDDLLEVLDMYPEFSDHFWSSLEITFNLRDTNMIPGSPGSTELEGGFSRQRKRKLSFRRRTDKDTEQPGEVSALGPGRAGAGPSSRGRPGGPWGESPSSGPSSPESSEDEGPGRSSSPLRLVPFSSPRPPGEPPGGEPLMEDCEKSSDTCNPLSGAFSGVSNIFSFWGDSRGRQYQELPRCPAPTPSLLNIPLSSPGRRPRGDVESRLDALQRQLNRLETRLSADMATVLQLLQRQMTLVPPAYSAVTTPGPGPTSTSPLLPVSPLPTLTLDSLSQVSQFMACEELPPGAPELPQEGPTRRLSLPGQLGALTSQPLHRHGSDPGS

[7] = target: Sodium-dependent serotonin transporter (Homo sapiens, UniProt P31645); assay: Inhibition of 5HTT receptor
Chain of Sodium-dependent serotonin transporter (P31645 whole entry): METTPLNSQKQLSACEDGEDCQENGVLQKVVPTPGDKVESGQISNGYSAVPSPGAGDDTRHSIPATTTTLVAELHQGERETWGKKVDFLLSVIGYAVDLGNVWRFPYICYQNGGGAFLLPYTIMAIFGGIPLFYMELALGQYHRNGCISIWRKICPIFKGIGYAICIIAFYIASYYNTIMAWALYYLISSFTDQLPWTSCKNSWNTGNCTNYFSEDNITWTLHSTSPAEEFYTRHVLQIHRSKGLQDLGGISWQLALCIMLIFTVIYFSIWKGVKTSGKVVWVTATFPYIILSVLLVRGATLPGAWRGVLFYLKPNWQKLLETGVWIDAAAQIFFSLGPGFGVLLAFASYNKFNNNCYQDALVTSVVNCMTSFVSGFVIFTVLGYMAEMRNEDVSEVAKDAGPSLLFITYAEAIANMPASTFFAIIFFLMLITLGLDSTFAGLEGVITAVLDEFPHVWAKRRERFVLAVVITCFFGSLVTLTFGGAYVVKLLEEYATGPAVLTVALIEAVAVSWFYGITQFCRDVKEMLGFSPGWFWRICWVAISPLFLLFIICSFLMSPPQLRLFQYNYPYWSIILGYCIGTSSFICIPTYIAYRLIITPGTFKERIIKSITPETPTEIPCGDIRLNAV

[8] = Inhibition of adrenergic alpha 1 receptor
Rattus norvegicus = organism: Rattus norvegicus; assay: Displacement of [3H]ditolylguanidine from sigma 2 […] receptor in rat liver at 1 uM

For `COC1OC2(CCN(Cc3ccccc3)CC2)c2cnn(-c3ccccc3)c21` (stereo not drawn), the Ki [1] was 1750 nM, the IC50 [2] was > 1000 nM and the IC50 [3] was > 10000 nM. For the same molecule, the Ki [4] was 0.5 nM, the inhibition [5] was 17% and the IC50 [6] was 0.41 nM. The IC50 [7] was > 10000 nM and the IC50 [8] was > 1000 nM.
In the case of `COC1OC2(CCNCC2)c2cnn(-c3ccccc3)c21` (stereo not drawn), the inhibition (Rattus norvegicus) is reported as 12%.
In the case of `Cc1ccccc1NC(=N)Nc1ccccc1C` [DITOLYLGUANIDINE], the Ki [1] is reported as 20.2 nM.
For `CCCCN1CCC2(CC1)OC(OC)c1c2cnn1-c1ccccc1` (stereo not drawn), the Ki [1] was 1050 nM, the IC50 [2] was > 1000 nM and the IC50 [3] was > 10000 nM. The inhibition [5] was 30%, the IC50 [6] was 0.65 nM and the IC50 [7] was > 10000 nM. The IC50 [8] was 1220 nM.
`c1ccc(-n2ncc3c2CCC3CCN2CCCCC2)cc1` (stereo not drawn) gave a Ki [1] of 36.2 nM.
